Laboratory results as given in patent publication US4053603A, “Benzylisoquinoline derivatives, and use as anti-arrhythmic drugs” (Astra Pharmaceutical Products, Inc., priority 1976, dated 1977).
Values joined by “and” are separate entries in the source; they are usually repeats but may differ in a detail not shown here. Equal values may be shown once. “Also recorded” adds a separate entry of the source. Read-outs that look alike come from different tables or passages of the source.

Columns and labels:
[1] = system: central nervous system; settings: metabolite of lidocaine, high doses of lidocaine; cited from earlier work
[2] = system: mice; experiment: central nervous system toxicity observation in mice (ataxia, convulsions, loss of righting reflex, death); assay type: in vivo, mouse (female Swiss albino, Ham/ICR); settings: for Toxicity: Death (number of mice) / Toxicity: Ataxia (number of mice) / Toxicity: Con. (Convulsions) (number of mice) / Toxicity: LRR (Loss of righting reflex) (number of mice): 100 mg/kg s.c., 10 mice; for Toxicity: Ataxia (number of mice) / Toxicity: Con. (Convulsions) (number of mice) / Toxicity: LRR (Loss of righting reflex) (number of mice): 20 min observation; for toxicity (in words): mice
Experimental: (§1) Ventricular fibrillation was produced in female Swiss albino mice (Ham/ICR weighing 18-25g.) essentially according to the method described by Lawson in J. Pharm, Exp. Therap. 160, 22 (1968).
(§2) For initial evaluation of antiarrhythmic activity and toxicity of test compounds, a dose of 100 mg/kg (calculated for the base form, 1% solution in 0.9% saline, adjusted to pH 6-7) was administered subcutaneously to a group of 10 non-fasted, randomly selected mice. […] After 20 minutes they were exposed to chloroform vapors and tested for protection against fibrillation.

[3] = system: chloroform-induced ventricular fibrillation; experiment: protection against chloroform-induced ventricular fibrillation in mice; assay type: in vivo, mouse (female Swiss albino, Ham/ICR); settings: for ED50: Mus musculus, sc, read-out: ED50 for protecting against fibrillation; for antiarrhythmic activity (in words): chloroform fibrillation; for relative Potency (molar basis): ED50^-1 in mmol/kg, standardized to compound 1 = 1
Experimental: as §1
The mice were placed individually into a 2,000 ml. beaker with cotton and 50 ml. of chloroform. Immediately after cessation of respiration the mouse was removed from the beaker, the thorax opened and the heart examined for the presence or absence of ventricular fibrillation. Each heart was stimulated by touching with forceps, and the nature of the cardiac rhythm was noted and confirmed by electrocardiographic recordings. The heart was considered to be fibrillating if fine tremulous movements were present on the surface of the ventricle and persisted for at least five seconds after the mechanical stimulus. Ventricular fibrillation was considered absent in those animals in which coordinated ventricular activity was evident following such procedures.
as §2
For determination of ED50 and relative potency of the compounds, three log-spaced doses of drug were selected to give a low, intermediate, and high degree of protection against fibrillation. Each dose was administered to 10 mice.
The data obtained from the three point assay was computer-analyzed using Berkson's minimum logit chi square analysis. The program was designed to give ED50 values with 95 percent Fieller limits.

[4] = system: heart; settings: cited from earlier work
[5] = system: ventricular arrhythmias in coronary ligated dogs; experiment: coronary ligated dogs, antiarrhythmic effect and toxicity, intravenous infusion (Harris procedure); assay type: in vivo, dog; settings: for Mean Arterial Blood Pressure, values after administration / Ventricular Rate, values after administration: i.v. infusion 0.5 mg/kg/minute
Experimental: (§3) Further confirmation of the superiority of the secondary amine compound was provided by comparison of the secondary and tertiary amines in tests on coronary ligated dogs. The tests were conducted in accordance with the procedure of Harris given in Circulation, 1, 1318, 1950. The drugs were administered by the intravenous route by infusion at a dosage of 0.5 mg./kg./minute, in a volume of 0.97 ml./minute and a concentration of 5.2-4.3 mg/ml. The animals were weighed and the solutions prepared on the day of the experiment.

[6] = system: mice; experiment: central nervous system toxicity observation in mice (ataxia, convulsions, loss of righting reflex, death); assay type: in vivo, mouse (female Swiss albino, Ham/ICR); settings: 138 mg/kg s.c., 10 mice
[7] = coronary ligated dogs, antiarrhythmic effect and toxicity, intravenous infusion (Harris procedure); assay type: in vivo, dog; settings: dog, in vivo, iv
Experimental: as §3

[8] = mice, three log-spaced doses, 10 mice each, 95% Fieller limits in brackets

| SMILES | Toxicity: Death (number of mice) [2] | Toxicity: Ataxia (number of mice) [2] | Toxicity: Con. (Convulsions) (number of mice) [2] | Toxicity: LRR (Loss of righting reflex) (number of mice) [2] | toxicity (in words) [2] | ED50 [3, 8] | antiarrhythmic activity (in words) ([3]; mice) | relative Potency (molar basis) [3] | other results |
| --- | --- | --- | --- | --- | --- | --- | --- | --- | --- |
| CCNCC(=O)Nc1c(C)cccc1C [monoethylglycinexylidide] | – | – | – | – | – | – | – | – | contribution to convulsive symptoms of CNS toxicity (in words) [1]: appears to be the metabolite contributing to the production of the convulsive symptoms of central nervous system toxicity with high doses of lidocaine |
| CCN(CC)CC(=O)Nc1cc(OC)c(OC)cc1Cc1nccc2cc(OC)c(OC)cc12 [Compound 1] | 0 | 0 | 0 | 0 | decreased the central nervous system toxicity | 211 mg/kg | increased the antiarrhythmic activity | – | – |
| CCNCC(=O)Nc1cc(OC)c(OC)cc1Cc1nccc2cc(OC)c(OC)cc12 [Compound 2] | 0 | 9 | 0 | 0 | toxicity symptoms; also recorded: higher toxicity | 142 mg/kg | comparable protection against fibrillation at the same test dose | 1 | – |
| COc1ccc(Cc2nccc3ccccc23)c(NC(=O)C(C)N)c1OC (stereo not drawn) [Compound 5] | 0 | 0 | 0 | 0 | – | 257 mg/kg | did not show any outstanding properties | 1 | – |
| CCN(CC)CC(=O)Nc1cc(OC)c(OC)cc1Cc1nccc2ccccc12 [Compound 6] | 0 | 7 | 0 | 0 | – | – | – | – | – |
| CCN(CC)CC(=O)Nc1c(C)cccc1C [Lidocaine, 2-diethylamino-2',6'-acetoxylidide, reference compound] | 0 | – | – | – | – | – | strong antiarrhythmic activity | – | antiarrhythmic effectiveness (in words) ([4]; intravenous and intramuscular): proved effective as an antiarrhythmic drug administered both intravenously and intramuscularly; ED50 [3]: 62 mg/kg |
| COc1ccc(Cc2nccc3cc(OC)c(OC)cc23)cc1OC [Papaverine, reference compound] | 0 | 2 | 0 | 0 | some evidence of toxicity | – | only little antiarrhythmic activity | – | cardiac effect / arrhythmia at clinical doses (in words) ([4]; background, clinical use): doses required were also found to cause dangerous arrhythmias by depression of A-V and intraventricular conduction |
| CCNCC(=O)Nc1c(Cc2nccc3ccccc23)ccc(OC)c1OC [Compound 4, 1-(2-[2-ethylamino-acetyl]amino-3,4-dimethoxybenzyl)isoquinoline] | 0 | 0 | 0 | 0 | – | 54 mg/kg | markedly higher antiarrhythmic potency than both its tertiary amine congener, compound 3, and lidocaine | 3 | abolishing severe arrhythmias (in words) ([5]; coronary ligated dogs, i.v.): effective in abolishing severe arrhythmias; central nervous system and cardiovascular toxicity at effective doses (in words) ([5]; coronary ligated dogs, i.v.): free from indications of central nervous system and cardiovascular toxicity; dose producing toxicity ([5]; dog, i.v. infusion): (c); Mean Arterial Blood Pressure, values after administration ([5]; dog): 125 and 85; Ventricular Rate, values after administration ([5]; dog): 147 and 123 |
| CCN(CC)CC(=O)Nc1c(CC2c3ccccc3CCN2C)ccc(OC)c1OC (stereo not drawn) [Compound 7] | – | – | – | – | comparable toxicity characteristics, as compound 1 | 160 mg/kg | essentially the same protection | 1 | Toxicity: Ataxia (number of mice) [6]: 0; Toxicity: Con. (Convulsions) (number of mice) [6]: 0; Toxicity: Death (number of mice) [6]: 0; Toxicity: LRR (Loss of righting reflex) (number of mice) [6]: 0 |
| CCN(CC)CC(=O)Nc1c(Cc2nccc3ccccc23)ccc(OC)c1OC [Compound 3] | 0 | 0 | 0 | 0 | lower toxicity | 146 mg/kg | greater antiarrhythmic activity | 1 | dose producing toxicity ([7]; Dose Producing Toxicity (convulsion)): 15.8 mg/kg; dose producing toxicity ([7]; Dose Producing Toxicity (profound head tremors)): 12.5 mg/kg; abolishing severe arrhythmias (in words) ([5]; coronary ligated dogs, i.v.): effective in abolishing severe arrhythmias; Mean Arterial Blood Pressure, values after administration ([5]; dog): 100 and 90; Ventricular Rate, values after administration ([5]; dog): 153 and 135; Dose Producing Toxicity (profound head tremors) ([5]; dog, in vivo, iv): 6.25 mg/kg |
